Tests used:
[1] = Metabolic stability (substrate depletion) in human liver microsome Phase I incubations; conditions: for intrinsic clearance (CLint): HLM incubations, scaled with 45 mg microsomal protein/g liver and 26 g liver/kg b.w.; for half-life at 10 μM: human, human liver microsomes
[2] = Phase II (glucuronidation) metabolite generation in alamethicin-induced HLM with NADPH and UDPGA; format: in vitro ADME, human; conditions: 2 h, LC-HRMS/MS
Experimental: For the generation of Phase II metabolites, alamethicine-induced HLM ([Fisher et al., 2000]) were used in the presence of Phase I and glucuronidation co-factor. Briefly, HLM (1 mg/mL) were preincubated for 15 min, in ice, with alamethicin (25 μg/mL) in 50 mM ABIC buffer at pH 7.4, for a total incubation volume of 200 μL. Following the addition of MgCl2 (2 mM; 1 μL) and selected cathinone (10 μM final concentration), the resulting solution was incubated for 5 min at 37°. NADPH (5 mM) and UDPGA (5 mM) were then added to start the Phase I and II reactions. Incubations were run in duplicate.
An in-house accurate mass library was first built, considering the metabolic pathways already known for other structurally similar cathinones, and a targeted screening was then carried out by performing extracted ion chromatograms (EIC), with a mass window of ±5 ppm, for the protonated/deprotonated molecules of the expected metabolites in the full scan spectra. Isotope cluster analysis was also used to identify chlorinated metabolites. All spectra corresponding to metabolites were then manually checked. The mass deviation from the accurate mass of the identified cathinone metabolites remained below 5 ppm for the precursor and below 10 ppm for product ions. Candidates present in control incubations and/or without MS/MS data were excluded. […] Metabolites were ranked based on their relative abundance over incubation time (Figures 2–9). The relative abundance was calculated by the ratio of the relative area of each metabolite and the sum of the relative areas obtained for all metabolites and for the respective parent cathinone.

[3] = parameters: method as in Wagmann et al., 2020; conditions: ref Wagmann et al., 2020; cited from earlier work
[4] = pH 7.4, half-life (t1/2), HLM 1 mg/mL, cathinone 10 μM, NADPH, 37°C, pH 7.4
[5] = pH 7.4, clearance classification based on t1/2, HLM, scoring proposed by McNaney et al. (2008)

Compound | intrinsic clearance (CLint) [1] | half-life at 10 μM [1, 4] | Phase II (glucuronide) metabolites identified [2] | half-life (t1/2) reported [3] | half-life at 10 μM [1, 5]
CC(C)NC(C)C(=O)c1cccc(Cl)c1 (stereo not shown) [3-CIC, 3′-chloro-N-isopropylcathinone] | 34 mLmin^−1 kg^−1 | 24 min |  |  | 
CNC(C)C(=O)c1cccc(Cl)c1 (stereo not shown) [3-CMC, 3′-chloromethcathinone] | 15 mLmin^−1 kg^−1 | 54 min | No Phase II metabolites were identified |  | 
CCNC(C)C(=O)c1ccc(Cl)cc1 (stereo not shown) [4-CEC, 4-chloroethcathinone] |  |  |  | 105 min | 
CC(C)NC(C)C(=O)c1ccc(Cl)cc1 (stereo not shown) [4-CIC, 4′-chloro-N-isopropylcathinone] | 22 mLmin^−1 kg^−1 | 36 min |  |  | 
CNC(C)C(=O)c1ccc(Cl)cc1 (stereo not shown) [4-CMC, 4′-chloromethcathinone] | 10 mLmin^−1 kg^−1 | 78 min | no Phase II metabolite was identified |  | > 60 min
CCC(C(=O)c1ccc(C)cc1)N(C)C (stereo not shown) [4-MDMB, 4′-methyl-N,N-dimethylbufedrone] | 54 mLmin^−1 kg^−1 | 15 min | No Phase II metabolite was detected |  | < 20 min
CCCC(C(=O)c1ccc(C)cc1)N(C)C (stereo not shown) [4-MDMP, 4′-methyl-N,N-dimethylpentedrone] | 18 mLmin^−1 kg^−1 | 46 min | No Phase II metabolites were identified |  | 
CCCC(NCC)C(=O)c1ccc(C)cc1 (stereo not shown) [4-MEAP, 4′-methyl-N-ethylnorpentedrone] | 33 mLmin^−1 kg^−1 | 24 min | no glucuronide metabolite was identified |  | 
CCNC(CC)C(=O)c1ccc(C)cc1 (stereo not shown) [4-MNEB, 4′-methyl-N-ethylbufedrone] | 16 mLmin^−1 kg^−1 | 55 min | No Phase II metabolites were identified |  | 
